From patent US20170340636A1, “COMPOSITIONS AND METHODS FOR INHIBITION OF AUTOPHAGY” (Board of Regents, The University of Texas System, priority 2016, published 2017)

How the values were obtained:
p38 = p38 (Homo sapiens, UniProt Q16539); test: DSF against p38 (selectivity panel of MAPK cascade members); type: binding; settings: difference between the TAOK2 ΔTm and that of p38, DSF
Method: (§1) Differential scanning fluorimetry binding assays of selected compounds against TAOK2 were conducted to measure strength of compound binding. A solution of 5 μM TAOK2, 50 mM MgCl2, 50 mM HEPES pH 7.5, and 2.5x SyproOrange(Life Technologies) was made. Compound was added to a final concentration of 1 μM. 25 μl of the reaction solution was added to the wells of a Biorad Multiplate 96 wellclear PCR plate. The plate was covered with a Biorad Microseal ‘B’ seal. Plates were read in a Biorad CFX96 Real-Time PCR system. The temperature was increased from 4° C. to 80° C., with fluorescence measurements being taken every 0.5° C. in the 6-FAM Fluorescein channel. The fluorescence response to heat curve was fit to a binding isotherm in order to determine the inflection point, which was taken as the melt temperature (Tm).
(§2) The difference between the TAOK2 ΔTm and that of p38 and ASK1 was determined. […] The majority of the other compounds were also preferentially inhibitory toward TAOK2. Of the 13 compounds, SW034538, SW172006 and SW083688 were cross-verified for selectivity by performing a specificity screen against 45 kinases commercially at Eurofins Cerep, Inc. (FIG. 3).

TAOK2 = target: T1, TAOK2 (Rattus norvegicus, UniProt Q9JLS3); test: Differential scanning fluorimetry (DSF) binding assay against TAOK2; settings: DSF melt temperature shift of TAOK2, 5 μM TAOK2, compound 1 μM
T1 construct: made in house
T1 sequence (Q9JLS3 1-320 limits assumed): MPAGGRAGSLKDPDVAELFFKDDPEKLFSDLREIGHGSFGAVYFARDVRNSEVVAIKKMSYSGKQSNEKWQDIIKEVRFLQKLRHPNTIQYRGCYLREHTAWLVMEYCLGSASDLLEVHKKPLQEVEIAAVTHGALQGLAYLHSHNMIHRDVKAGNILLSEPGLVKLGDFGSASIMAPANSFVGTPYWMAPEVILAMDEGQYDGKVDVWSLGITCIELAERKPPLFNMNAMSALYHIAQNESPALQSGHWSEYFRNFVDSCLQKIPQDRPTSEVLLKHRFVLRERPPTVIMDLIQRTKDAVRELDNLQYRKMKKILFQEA
Method: as §1
The prevalence of multiple heterocycles in the compounds is reflective of the composition of the screen (described in Methods in Supplemental Material). These 13 compounds were purchased from Chembridge Inc. and ChemDiv Inc. for measurement of direct binding using Differential Scanning Fluorimetry (DSF). DSF measures protein melt temperature (Tm) with a lipophilic dye (SyproOrange). As the temperature of the solution is increased, measurements of dye fluorescence are taken. When the protein begins to denature, hydrophobic regions in the protein are exposed, and the dye is able to bind. This binding insulates the dye from the surrounding water, reducing quenching effects and allowing fluorescence. Binding of small molecules to protein has a stabilizing effect, and this is seen by an increase in melt temperature (Table 1). The ΔTm values ranged from 3.0 to −0.6° C. The three compounds with the highest positive shifts were SW034538, SW163112, and SW083688, with 3° C., 2.2° C., and 2° C. shifts, respectively.

ASK1 = target: T2, ASK1 (Homo sapiens, UniProt Q99683); test: DSF against ASK1 (selectivity panel of MAPK cascade members); type: binding; settings: difference between the TAOK2 ΔTm and that of ASK1, DSF
T2 sequence (Q99683 1-1374): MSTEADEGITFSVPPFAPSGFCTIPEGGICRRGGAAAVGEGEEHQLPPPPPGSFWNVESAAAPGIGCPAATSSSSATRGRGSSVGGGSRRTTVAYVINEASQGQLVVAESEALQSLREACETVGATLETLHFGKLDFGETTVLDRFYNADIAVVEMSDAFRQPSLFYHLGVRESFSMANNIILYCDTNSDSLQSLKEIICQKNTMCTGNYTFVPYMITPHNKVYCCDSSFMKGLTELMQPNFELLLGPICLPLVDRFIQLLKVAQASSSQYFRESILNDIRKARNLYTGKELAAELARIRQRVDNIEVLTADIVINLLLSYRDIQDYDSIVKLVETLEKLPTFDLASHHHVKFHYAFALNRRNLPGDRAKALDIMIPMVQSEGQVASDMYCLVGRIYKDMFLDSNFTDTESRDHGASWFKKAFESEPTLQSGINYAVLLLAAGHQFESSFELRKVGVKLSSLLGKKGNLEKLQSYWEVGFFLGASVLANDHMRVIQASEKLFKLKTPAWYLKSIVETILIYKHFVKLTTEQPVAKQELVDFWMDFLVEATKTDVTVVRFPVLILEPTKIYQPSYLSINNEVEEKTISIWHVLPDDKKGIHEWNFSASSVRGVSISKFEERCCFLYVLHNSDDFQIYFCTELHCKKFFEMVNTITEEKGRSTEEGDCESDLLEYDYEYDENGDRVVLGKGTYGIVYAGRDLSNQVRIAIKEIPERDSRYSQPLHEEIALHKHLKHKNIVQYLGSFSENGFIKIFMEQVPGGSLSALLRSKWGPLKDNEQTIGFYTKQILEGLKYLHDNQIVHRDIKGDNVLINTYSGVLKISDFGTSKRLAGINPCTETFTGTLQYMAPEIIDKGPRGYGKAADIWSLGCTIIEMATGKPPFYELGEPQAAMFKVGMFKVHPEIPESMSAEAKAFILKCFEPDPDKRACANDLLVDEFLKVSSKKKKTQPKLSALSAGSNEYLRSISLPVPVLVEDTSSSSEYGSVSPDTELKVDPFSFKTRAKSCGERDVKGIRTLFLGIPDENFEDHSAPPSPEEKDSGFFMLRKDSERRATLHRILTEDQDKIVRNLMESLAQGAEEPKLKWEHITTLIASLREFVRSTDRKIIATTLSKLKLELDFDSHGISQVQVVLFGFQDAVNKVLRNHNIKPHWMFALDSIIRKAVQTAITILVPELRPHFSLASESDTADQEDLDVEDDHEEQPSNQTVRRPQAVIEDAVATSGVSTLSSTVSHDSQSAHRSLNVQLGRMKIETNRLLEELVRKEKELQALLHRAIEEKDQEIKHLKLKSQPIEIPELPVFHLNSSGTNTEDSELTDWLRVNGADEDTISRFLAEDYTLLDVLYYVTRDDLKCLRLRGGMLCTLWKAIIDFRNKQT
Method: as §1, §2

45 off-target kinases = test: Specificity screen against 45 kinases (Eurofins Cerep); type: biochemical; settings: inhibition higher than 50% considered significant
Method: Of the 13 inhibitors, 3 were tested for cross-reactivity against 45 off-target kinases.
as §2

p38, sequence (Q16539 whole entry): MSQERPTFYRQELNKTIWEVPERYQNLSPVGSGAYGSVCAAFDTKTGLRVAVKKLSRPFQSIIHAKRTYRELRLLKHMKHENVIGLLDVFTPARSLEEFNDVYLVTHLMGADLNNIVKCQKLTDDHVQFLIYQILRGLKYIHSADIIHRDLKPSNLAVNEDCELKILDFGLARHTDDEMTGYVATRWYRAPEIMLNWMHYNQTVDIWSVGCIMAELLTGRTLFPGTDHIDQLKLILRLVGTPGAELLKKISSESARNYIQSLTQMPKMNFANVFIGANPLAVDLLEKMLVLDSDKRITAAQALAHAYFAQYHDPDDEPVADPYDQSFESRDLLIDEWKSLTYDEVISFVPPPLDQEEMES

| Compound | ΔΔTm (p38) (p38) [°C] | ΔTm at 1 µM (TAOK2) [°C] | ΔΔTm (ASK1) (ASK1) [°C] | specificity toward TAOK2 in screen against 45 kinases (45 off-target kinases) |
| --- | --- | --- | --- | --- |
| CS(=O)(=O)c1ccc2nc(NC(=O)CCCOc3ccc(Cl)cc3)sc2c1 [SW172006] | 2.0 | 1.3 | 1.2 | highly specific toward TAOK2 |
| CCC(=O)Nc1nc(C)c(-c2csc(Nc3cc(OC)ccc3OC)n2)s1 [SW034538] | 2.8 | 3 | 2.7 | cross-reactivity with respect to six of the 45 kinases |
| CCOCCCn1c(=S)[nH]c2cc(C(=O)NCC3COc4ccccc4O3)ccc2c1=O (stereo not drawn) [SW083688] | 2.0 | 2 | 2.1 | highly specific toward TAOK2 |
